For one data set, the target named is Histone deacetylase. Kind of data set: Inhibition of HDAC in human HeLa nuclear extract using Boc-Lys(Ac)-AMC or Boc-Lys(Tfa)-AMC as substrate preincubated for 5 mins followed by substrate addition and measured after 30 mins by fluorescence assay. Format: subcellular, Nucleus.
For another data set, the system named is Jurkat. Kind of data set: Antiproliferative activity against human Jurkat cells assessed as inhibition of cell growth incubated for 48 hrs by CCK-8 assay. Format: functional, cell-based. (Formazan colour is commonly taken as a measure of viable cells.)
A further data set concerns the target Histone deacetylase 1 (Homo sapiens, UniProt Q13547). Kind of data set: Inhibition of HDAC1 (unknown origin) using Boc-Lys(Ac)-AMC or Boc-Lys(Tfa)-AMC as substrate preincubated for 5 mins followed by substrate addition and measured after 2 hrs by fluorescence assay.
The target of another data set is Histone deacetylase 2 (Homo sapiens, UniProt Q92769). Kind of data set: Inhibition of HDAC2 (unknown origin) using Boc-Lys(Ac)-AMC or Boc-Lys(Tfa)-AMC as substrate preincubated for 5 mins followed by substrate addition and measured after 1 hr by fluorescence assay.
The target in data set [1] is T1, Protein deacetylase HDAC6 (Homo sapiens, UniProt Q9UBN7).
T1 sequence (Q9UBN7 whole entry): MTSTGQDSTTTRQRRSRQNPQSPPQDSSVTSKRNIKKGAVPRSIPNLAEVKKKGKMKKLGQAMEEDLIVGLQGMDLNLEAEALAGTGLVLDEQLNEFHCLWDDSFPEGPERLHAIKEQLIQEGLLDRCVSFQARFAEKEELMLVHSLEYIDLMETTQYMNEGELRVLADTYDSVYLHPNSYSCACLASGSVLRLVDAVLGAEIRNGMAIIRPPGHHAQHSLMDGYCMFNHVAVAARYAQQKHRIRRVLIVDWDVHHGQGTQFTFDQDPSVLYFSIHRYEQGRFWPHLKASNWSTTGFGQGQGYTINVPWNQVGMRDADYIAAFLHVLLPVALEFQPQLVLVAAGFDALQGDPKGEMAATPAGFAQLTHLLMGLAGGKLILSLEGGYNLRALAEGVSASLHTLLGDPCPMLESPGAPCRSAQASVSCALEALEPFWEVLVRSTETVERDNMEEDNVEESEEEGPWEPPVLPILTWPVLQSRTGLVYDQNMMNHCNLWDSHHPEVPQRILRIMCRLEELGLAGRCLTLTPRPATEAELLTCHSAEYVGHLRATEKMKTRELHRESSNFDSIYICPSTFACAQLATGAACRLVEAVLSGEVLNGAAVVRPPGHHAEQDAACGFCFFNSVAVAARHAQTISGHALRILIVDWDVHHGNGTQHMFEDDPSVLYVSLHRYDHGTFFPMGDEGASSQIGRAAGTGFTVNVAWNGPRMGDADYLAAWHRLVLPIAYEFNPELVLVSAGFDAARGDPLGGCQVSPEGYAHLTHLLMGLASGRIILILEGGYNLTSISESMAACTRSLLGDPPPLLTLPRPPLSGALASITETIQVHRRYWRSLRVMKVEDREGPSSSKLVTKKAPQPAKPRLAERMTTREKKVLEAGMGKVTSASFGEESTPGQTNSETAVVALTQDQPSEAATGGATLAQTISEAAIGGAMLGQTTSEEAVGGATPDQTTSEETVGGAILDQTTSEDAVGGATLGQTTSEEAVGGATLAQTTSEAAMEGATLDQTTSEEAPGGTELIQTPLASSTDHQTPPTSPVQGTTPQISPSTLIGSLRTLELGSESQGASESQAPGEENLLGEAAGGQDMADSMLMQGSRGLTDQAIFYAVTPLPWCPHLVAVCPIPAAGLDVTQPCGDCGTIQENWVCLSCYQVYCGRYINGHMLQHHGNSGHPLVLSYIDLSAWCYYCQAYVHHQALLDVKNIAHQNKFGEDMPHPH
Kind of data set: Inhibition of HDAC6 (unknown origin) using Boc-Lys(Ac)-AMC or Boc-Lys(Tfa)-AMC as substrate preincubated for 5 mins followed by substrate addition and measured after 2 hrs by fluorescence assay.

The next data set concerns the target T2, Histone deacetylase 8 (Homo sapiens, UniProt Q9BY41).
T2 sequence (Q9BY41 whole entry): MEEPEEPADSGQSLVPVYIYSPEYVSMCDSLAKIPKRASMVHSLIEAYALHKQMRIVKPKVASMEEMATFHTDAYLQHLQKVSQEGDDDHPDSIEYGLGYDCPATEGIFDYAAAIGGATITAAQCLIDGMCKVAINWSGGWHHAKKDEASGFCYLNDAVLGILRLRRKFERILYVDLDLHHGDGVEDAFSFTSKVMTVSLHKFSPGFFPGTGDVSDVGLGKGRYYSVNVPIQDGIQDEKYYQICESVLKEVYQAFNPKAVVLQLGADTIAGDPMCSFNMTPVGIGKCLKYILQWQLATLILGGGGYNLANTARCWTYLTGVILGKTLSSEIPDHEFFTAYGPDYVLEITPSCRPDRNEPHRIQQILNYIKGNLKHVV
Kind of data set: Inhibition of HDAC8 (unknown origin) using Boc-Lys(Ac)-AMC or Boc-Lys(Tfa)-AMC as substrate preincubated for 5 mins followed by substrate addition and measured after 1 hr by fluorescence assay.

Another data set has as its system SK-N-BE(2). Kind of data set: cells. The class given is functional, cell-based. Particulars: Homo sapiens, SKNBE2, 48 h.
A further data set in a line: cells. Format: functional, cell-based. Particulars: Homo sapiens, KM3, 48 h.
A further data set relates to PC-3. Kind of data set: cells. The class given is functional, cell-based. Particulars: Homo sapiens, PC-3, 48 h.
Another data set is described as follows: in vitro. Particulars: human, HUVEC cells.
Data set [2] in a line: Metabolic stability in liver microsomes (unknown origin) at 2 mg/ml incubated for 120 mins under shaking condition in presence of NADPH by HPLC method. Format: ADME, Microsome. Particulars: 2 h. (Liver microsomes are a subcellular fraction often used to study metabolism.)

We go through eleven compounds from ChEMBL document CHEMBL5257099, “Design, synthesis and bioactivity evaluations of 8-substituted-quinoline-2-carboxamide derivatives as novel histone deacetylase (HDAC) inhibitors” (Bioorg Med Chem, 2023).

Molecules are shown by their SMILES.

Histone deacetylase 2, sequence (Q92769 whole entry): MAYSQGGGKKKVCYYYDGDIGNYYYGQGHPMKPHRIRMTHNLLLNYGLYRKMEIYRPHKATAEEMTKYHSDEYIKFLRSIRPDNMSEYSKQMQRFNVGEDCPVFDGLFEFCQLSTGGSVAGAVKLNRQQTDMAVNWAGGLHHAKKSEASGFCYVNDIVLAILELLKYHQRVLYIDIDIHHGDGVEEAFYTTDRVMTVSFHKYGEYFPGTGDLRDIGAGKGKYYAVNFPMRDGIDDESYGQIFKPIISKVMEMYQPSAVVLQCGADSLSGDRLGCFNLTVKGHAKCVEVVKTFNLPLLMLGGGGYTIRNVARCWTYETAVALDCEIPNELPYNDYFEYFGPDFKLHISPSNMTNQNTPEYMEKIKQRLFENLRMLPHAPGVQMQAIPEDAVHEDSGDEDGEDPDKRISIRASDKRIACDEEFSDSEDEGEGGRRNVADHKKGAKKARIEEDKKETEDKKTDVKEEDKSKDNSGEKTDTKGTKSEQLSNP
Histone deacetylase 1, sequence (Q13547 whole entry): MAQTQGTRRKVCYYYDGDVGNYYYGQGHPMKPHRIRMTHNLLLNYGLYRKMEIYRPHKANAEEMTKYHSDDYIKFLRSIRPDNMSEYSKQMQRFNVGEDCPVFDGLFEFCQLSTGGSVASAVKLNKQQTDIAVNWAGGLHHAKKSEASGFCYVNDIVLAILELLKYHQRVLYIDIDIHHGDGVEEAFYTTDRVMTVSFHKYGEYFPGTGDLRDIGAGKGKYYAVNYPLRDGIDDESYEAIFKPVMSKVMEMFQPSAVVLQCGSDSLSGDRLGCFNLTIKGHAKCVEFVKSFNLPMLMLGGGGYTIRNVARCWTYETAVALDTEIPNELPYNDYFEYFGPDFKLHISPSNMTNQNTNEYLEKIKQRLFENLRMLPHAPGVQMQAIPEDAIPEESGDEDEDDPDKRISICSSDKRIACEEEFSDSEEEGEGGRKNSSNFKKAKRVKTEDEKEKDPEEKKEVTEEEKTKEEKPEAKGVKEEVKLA
Description for PC-3: Antiproliferative activity against human PC-3 cells assessed as inhibition of cell growth incubated for 48 hrs by CCK-8 assay
Description for SK-N-BE(2): Antiproliferative activity against human SK-N-BE(2) cells assessed as inhibition of cell growth incubated for 48 hrs by CCK-8 assay
Description for in vitro: Cytotoxicity against HUVEC cells assessed as inhibition of cell growth incubated for 48 hrs by CCK-8 assay

In turn, `COc1ccc(COc2cccc3ccc(C(=O)NCCCCCC(=O)NO)nc23)cc1` yielded an IC50 against Histone deacetylase of 127 nM.
`O=C(CCCCCCC(=O)Nc1ccccc1)NO` [VORINOSTAT]: the half-maximal inhibitory concentration (IC50) with Jurkat is 3620 nM.
Take `O=C(NO)c1ccc(CNC(=O)c2ccc3cccc(OCc4ccc(Br)cc4)c3n2)cc1`: the IC50 on Histone deacetylase is 54 nM.
For `O=C(NO)c1ccc(CNC(=O)c2ccc3cccc(OCc4ccc(F)cc4)c3n2)cc1`, the IC50 against Histone deacetylase was 33 nM; against Histone deacetylase 1, 70 nM; at Histone deacetylase 2, 18 nM; in data set [1] it was 38 nM; on Histone deacetylase 8, above 10000 nM; in the data set on Jurkat, 4260 nM. Further, the IC50 in the data set with SK-N-BE(2) was 3770 nM; in “cells”, 2830 nM; in the data set on PC-3 it was 5660 nM. In “in vitro”, the IC50 at 48 h was above 50000 nM.
Consider `O=C(NO)c1ccc(CNC(=O)c2ccc3cccc(OCc4ccccc4)c3n2)cc1`, for which, at Histone deacetylase, the IC50 worked out at 62 nM.
With `COc1ccc(COc2cccc3ccc(C(=O)NCc4ccc(C(=O)NO)cc4)nc23)cc1`, the IC50 at Histone deacetylase was 41 nM; on Histone deacetylase 1, 130 nM; against Histone deacetylase 2 it was 72 nM; in data set [1], 61 nM; on Histone deacetylase 8 it was above 10000 nM; with Jurkat it was 4850 nM. In addition, the IC50 with SK-N-BE(2) came to 4260 nM; in “cells”, 1460 nM; in the data set with PC-3, 5900 nM. In addition, in the data set “in vitro”, the IC50 at 48 h was above 50000 nM.
At Histone deacetylase, `CC(C)(C)c1ccc(COc2cccc3ccc(C(=O)NCCCCCC(=O)NO)nc23)cc1` registered an IC50 of 187 nM.
Same read-out and setting: the figure for `O=C(CCCCCNC(=O)c1ccc2cccc(OCc3ccc(Br)cc3)c2n1)NO` is 168 nM.
For `Cc1ccc(COc2cccc3ccc(C(=O)NCc4ccc(C(=O)NO)cc4)nc23)cc1`, the IC50 against Histone deacetylase is 46 nM; at Histone deacetylase 1, 132 nM; against Histone deacetylase 2, 43 nM; in [1] it was 101 nM; on Histone deacetylase 8, above 10000 nM; with Jurkat, 4430 nM. Also, the IC50 is 3570 nM in the data set with SK-N-BE(2), 1670 nM in “cells” and 4090 nM with PC-3. In “in vitro”, the IC50 at 48 h was above 50000 nM.
Compound `O=C(CCCCCNC(=O)c1ccc2cccc(OCc3ccccc3)c2n1)NO` yielded an IC50 against Histone deacetylase of 168 nM.
On to `COc1cccc2ccc(C(=O)NCc3ccc(C(=O)NO)cc3)nc12`, for which the IC50 was 50 nM on Histone deacetylase; 98 nM on Histone deacetylase 1; 26 nM against Histone deacetylase 2; 166 nM in data set [1]; above 10000 nM against Histone deacetylase 8; 2900 nM with Jurkat. Moreover, the IC50 came to 1210 nM in the data set with SK-N-BE(2), 500 nM in the data set “cells” and 2790 nM in the data set on PC-3. Also, the Stability result in data set [2] is listed as “Stable”. Also, in the data set “in vitro”, the IC50 at 48 h was above 50000 nM.

By IC50 is commonly meant the concentration at which inhibition is half-maximal.
